The record followed here is ChEMBL document CHEMBL6114976, “Structure-based design, synthesis and biological evaluation of a novel d-amino acid-containing peptide inhibitor by blocking the RAD51-BRCA2 interaction for the treatment of kidney cancer” (Eur J Med Chem, 2025).

The nature of series [1]: Stability in mouse serum assessed as compound remaining at 5 uM measured after 180 mins by HPLC analysis. It counts as ADME, cell-free. The conditions noted are these: 3 h.
In series [2] the test system is 786-0. In words: cells. The settings on record: Homo sapiens, 786-0, 72 h.
Description: Inhibition of cell proliferation of human 786-0 cells incubated for 72 hrs by MTT assay
For series [3], the target named is T1, DNA repair protein RAD51 homolog 1 (Homo sapiens, UniProt Q06609).
T1 sequence (Q06609 whole entry): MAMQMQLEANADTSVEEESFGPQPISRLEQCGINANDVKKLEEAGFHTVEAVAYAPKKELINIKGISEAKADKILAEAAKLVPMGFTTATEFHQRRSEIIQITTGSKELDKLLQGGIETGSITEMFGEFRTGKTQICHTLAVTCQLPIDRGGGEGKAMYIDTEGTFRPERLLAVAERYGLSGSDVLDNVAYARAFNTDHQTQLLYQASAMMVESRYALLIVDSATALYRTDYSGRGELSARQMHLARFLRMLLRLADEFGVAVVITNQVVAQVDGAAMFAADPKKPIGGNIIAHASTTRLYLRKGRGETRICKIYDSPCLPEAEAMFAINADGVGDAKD
In words: Binding affinity to RAD51 (unknown origin) assessed as dissociation constant by MST assay.

In series [4] the test system is 786-0. As to the kind of experiment: Inhibition of cell proliferation of human 786-0 cells at 3 uM incubated for 72 hrs by MTT assay relative to control. It counts as functional.
Series [5] is described as follows: AUC in BALB/c mouse at 10 mg/kg, iv measured for 0.25 to 24 hrs by LC-MS/MS analysis. Format: ADME, organism-based. The settings on record: in vivo, time 0.25-24 hrs.
The next series deals with A498. In words: Inhibition of cell proliferation of human A498 cells incubated for 72 hrs by MTT assay. It counts as functional, cell-based. The settings on record: A498, 72 h.
Series [6] is described as follows: Toxicity in BALB/c nude mouse xenografted with human 786-0 cells assessed as body weight change at 10 to 20 mg/kg, iv measured for 21 days. It counts as organism-based. The settings on record: in vivo, 504 h, dose 10-20 mg/kg, time 21 day.
Series [7] relates to 786-0. In words: Inhibition of HR repair in human 786-0 cells transfected with plasmids upto 640 nM incubated for 5 hrs by real-time PCR assay. It counts as functional, cell-based.
The nature of series [8]: Stability in mouse serum assessed as compound remaining at 5 uM measured after 360 mins by HPLC analysis. Format: ADME, cell-free. The settings on record: read-out: Stability.
Series [9] in a line: Inhibition of cell proliferation of human MCF-10A cells incubated for 72 hrs by MTT assay. Format: toxicity, cell-based.
Series [10] addresses T1, DNA repair protein RAD51 homolog 1. As to the kind of experiment: Inhibition of RAD51 (unknown origin) in presence of AlexaFluor 488-labeled BRC4 by fluorescence polarization competitive binding assay.
Series [11] is described as follows: Inhibition of cell proliferation of human HK-2 cells incubated for 72 hrs by MTT assay. Format: toxicity, cell-based.
For another series, the system named is ACHN. As to the kind of experiment: Inhibition of cell proliferation of human ACHN cells incubated for 72 hrs by MTT assay. Format: functional, cell-based.
Series [12] has as its system 786-0. As to the kind of experiment: Antitumor activity against human 786-0 cells xenografted in BALB/c nude mouse assessed as reduction in tumor volume at 10 to 20 mg/kg, iv measured for 21 days. It counts as functional, organism-based. The settings on record: dose 10-20 mg/kg, time 21.0 day.
Series [13] is described as follows: Toxicity in BALB/c nude mouse xenografted with human 786-0 cells assessed as change in BUN level at 10 to 20 mg/kg, iv measured for 21 days. Format: organism-based. The conditions noted are these: in vivo, 504 h, dose 10-20 mg/kg, time 21 day.
A short description of series [14]: Inhibition of cell proliferation of human Hkb20 cells incubated for 72 hrs by MTT assay. It counts as toxicity, cell-based.
A short description of series [15]: Toxicity in BALB/c nude mouse xenografted with human 786-0 cells assessed as change in ALT level at 10 to 20 mg/kg, iv measured for 21 days. Format: organism-based. The conditions noted are these: in vivo, 504 h, dose 10-20 mg/kg, time 21 day.
Series [16] is described as follows: Inhibition of cell proliferation of human GP2-293 cells incubated for 72 hrs by MTT assay. Format: toxicity, cell-based.
Series [17] relates to 786-0. In words: Antitumor activity against human 786-0 cells xenografted in BALB/c nude mouse assessed as tumor growth inhibition administered intravenously measured for 21 days. It counts as functional, cell-based. The settings on record: dose 10-20 mg/kg, route iv, time 21.0 day.
A short description of series [18]: Inhibition of cell proliferation of human SNU-349 cells incubated for 72 hrs by MTT assay. The conditions noted are these: SNU-349, 72 h. It counts as functional, cell-based.
The nature of series [19]: Toxicity in BALB/c nude mouse xenografted with human 786-0 cells assessed as change in CREA level at 10 to 20 mg/kg, iv measured for 21 days. It counts as organism-based. The settings on record: in vivo, 504 h, dose 10-20 mg/kg, time 21 day.
A short description of series [20]: Half life in BALB/c mouse at 10 mg/kg, iv measured for 0.25 to 24 hrs by LC-MS/MS analysis. Format: ADME, organism-based. The conditions noted are these: in vivo, time 0.25-24 hrs.
For series [21], the system named is 786-0. As to the kind of experiment: Antitumor activity against human 786-0 cells xenografted in BALB/c nude mouse assessed as reduction in tumor weight at 10 to 20 mg/kg, iv measured for 21 days. Format: functional, organism-based. The conditions noted are these: dose 10-20 mg/kg, time 21.0 day.
The next series relates to CAKI-1. As to the kind of experiment: Inhibition of cell proliferation of human CAKI-1 cells incubated for 72 hrs by MTT assay. Format: functional, cell-based. The conditions noted are these: CAKI-1, 72 h.
Series [22] is described as follows: Toxicity in BALB/c nude mouse xenografted with human 786-0 cells assessed as change in AST level at 10 to 20 mg/kg, iv measured for 21 days. Format: organism-based. The settings on record: in vivo, 504 h, dose 10-20 mg/kg, time 21 day.
A short description of series [23]: Cmax in BALB/c mouse at 10 mg/kg, iv measured for 0.25 to 24 hrs by LC-MS/MS analysis. The conditions noted are these: in vivo, time 0.25-24 hrs. It counts as ADME, organism-based.
Series [24] in a line: Tmax in BALB/c mouse at 10 mg/kg, iv measured for 0.25 to 24 hrs by LC-MS/MS analysis. Format: ADME, organism-based. The conditions noted are these: in vivo, time 0.25-24 hrs.
In series [25] the test system is 786-0. As to the kind of experiment: Induction of DNA damage in human 786-0 cells assessed as increase in gamma-H2AX mRNA level incubated for 48 hrs by qPCR analysis. It counts as functional, cell-based. The conditions noted are these: dose 100-300 nM.

Calls of active or inactive are those of the source. No cut-off for these calls is given here. Residues, ends and D or L forms follow the SMILES beside them.

Consider `CC[C@H](C)[C@H](NC(=O)[C@H](CCCCN)NC(=O)[C@@H](NC(=O)[C@H](CCCCN)NC(=O)[C@H](CCCCN)NC(=O)CNC(=O)[C@H](CO)NC(=O)[C@H](C)NC(=O)[C@@H](NC(=O)[C@H](Cc1c[nH]cn1)NC(=O)[C@H](Cc1ccccc1)NC(=O)CNC(=O)[C@H](CC(C)C)NC(=O)[C@H](CC(C)C)NC(C)=O)[C@@H](C)O)C(C)C)C(=O)N[C@@H](C)C(=O)N[C@@H](CCCCN)C(N)=O` (Ac-LLGFHTASGKKVKIAK-NH2), for which the Stability result in series [1] is “Unstable”. Also, the half-maximal inhibitory concentration (IC50) with 786-0 [2] is over 10000 nM. In series [3], the Kd was found to be 602 nM.

Molecule `CC[C@](C)(NC(=O)[C@@H](NC(=O)[C@H](CC(C)C)NC(=O)[C@H](Cc1c[nH]c2ccccc12)NC(=O)[C@@H](CO)NC(C)=O)C(C)C)C(N)=O` gave an inhibition at 3 µM in the series with 786-0 [4] of over 60%. The Kd in [3] came to 56.7 nM.

`CC[C@](C)(NC(=O)[C@@H](NC(=O)[C@H](CC(C)C)NC(=O)[C@H](Cc1c[nH]c2ccccc12)NC(=O)[C@H](CO)NC(C)=O)[C@@H](C)O)C(N)=O` displayed an inhibition at 3 µM in the series on 786-0 [4] of over 60%. The Kd in series [3] was determined as 236 nM.

As to `CC[C@](C)(NC(=O)[C@@H](NC(=O)[C@H](CC(C)C)NC(=O)[C@H](Cc1ccccc1)NC(=O)[C@@H](CO)NC(C)=O)[C@@H](C)O)C(N)=O`, the inhibition at 3 µM in the series on 786-0 [4] was over 60%. Moreover, in [3], the Kd came to 128 nM.

The molecule `CC[C@](C)(NC(=O)[C@@H](NC(=O)[C@H](CC(C)C)NC(=O)[C@H](Cc1c[nH]c2ccccc12)NC(=O)[C@@H](CO)NC(C)=O)[C@@H](C)O)C(N)=O` had an AUC in [5] of 13000 ng·h/mL. In addition, the IC50 came to 680 nM in the series with A498; 35 nM in series [10]; 310 nM in the series on ACHN; 90 nM in the series with 786-0 [2]; 250 nM in [18]; 510 nM in the series on CAKI-1. In addition, the Activity entry is “Non-toxic” in series [6]; “Non-toxic” in [13]; “Non-toxic” in series [15]; “Dose-dependent-effect” in the series on 786-0 [17]; “Non-toxic” in [19]; “Non-toxic” in [22]. In the series on 786-0 [25], the Activity result is “Dose-dependent-effect”. Further, in the series with 786-0 [7], the inhibition entry is “Dose-dependent-effect”. The same molecule showed an inhibition at 3 µM in the series with 786-0 [4] of over 90%. Also, in [8], the remaining at 6 h, 5 µM is 85%. In addition, the IC50 at 72 h in series [9], in [11], in [14] and in series [16] was over 10000 nM in each case. In addition, the result in the series on 786-0 [12] and with 786-0 [21] was Active. Besides, the Kd in series [3] came out at 9.24 nM. Also, in series [20], the half-life was 7.38 h. The peak level in series [23] (Cmax) was 6470 ng/mL. The Tmax in series [24] came out at 0.29 h.

`CC[C@](C)(NC(=O)[C@@H](NC(=O)[C@H](C)NC(=O)[C@H](Cc1c[nH]c2ccccc12)NC(=O)[C@@H](CO)NC(C)=O)[C@@H](C)O)C(N)=O`: the inhibition at 3 µM with 786-0 [4] was over 60%. Also, the Kd in series [3] worked out at 40.1 nM.

The molecule `CC(=O)N[C@H](CO)C(=O)N[C@@H](Cc1ccccc1)C(=O)N[C@@H](CC(C)C)C(=O)N[C@H](C(=O)N[C@@H](C)C(N)=O)C(C)C` displayed an inhibition at 3 µM in the series with 786-0 [4] of over 60%. Also, the Kd in [3] was determined as 145 nM.
